We go through 2 compounds from US20070231828A1, “Methods of predicting behavior of cancers” (Johns Hopkins University, priority 2003, published 2007).

For one experiment, the system named is prostate epithelium. Kind of experiment: Prostate regeneration in castrated mice. The settings on record: castrates. Type of experiment: in vivo, C57B16/J mice. An excerpt:
Prostates were collected, weighed, and processed for histology.

Experiment [1] relates to human prostate cancer cell lines. Kind of experiment: Quantitative RT-PCR of transcripts. Type of experiment: cell-based. The source says: (§1) Amplification of Hh pathway components was normalized in qRT-PCR experiments to that of endogenous phosphoglycerate kinase in each sample. Oligonucleotide primers used in quantitative reeal-time and conventional amplification of reverse transcribed mRNA (RT-PCR) are shown in Table 4.

The subject of experiment [2] is AT6.3 cells. Kind of experiment: Quantitative RT-PCR of transcripts. Type of experiment: cell-based, rat.
From the text: as §1

For another experiment, the system named is 22RV1 xenograft tumors. The following applies: 50 mg/kg daily s.c. The protocol:
(§2) CWR22RV1 (n=14) and PC3tumor xenografts (n=20) were grown by injecting 0.1 ml of Hanks Balanced Salt Solution and Matrigel (1:1) (Beckton Dickinson, Franklin Lakes, N.J.) containing 2.5×10^6 cells subcutaneously at each of two locations (right anterior and posterior flank) per athymic mouse. […] Animals were euthanized and tumors harvested for Ki-67 staining. […] Mice were observed daily for distress and experiments were carried out according to approved institutional protocols. Individual tumor volumes were plotted and regression curves were generated using analysis software to determine individual tumor growth rates.

Another experiment concerns PC3 xenograft tumors. The following applies: 50 mg/kg daily s.c. The procedure:
as §2

Experiment [3] relates to AT2.1 subcutaneous tumors. Kind of experiment: Dunning rat prostate carcinoma xenografts in athymic mice. The settings on record: s.c. Type of experiment: in vivo.
Another experiment relates to AT2.1-GLI cells. Kind of experiment: In vitro Matrigel invasion assay. Type of experiment: cell-based, rat. The settings on record: 3 μM pre-treatment 24 hours. The source says: (§3) Cells reaching the lower chamber were counted according to the manufacturer's protocol. Results were normalized to viable cell mass assayed as described above.
Experiment [4] has as its system AT6.3 cells. Kind of experiment: In vitro Matrigel invasion assay. Type of experiment: cell-based, rat. The following applies: 3 μM pre-treatment 24 hours, normalized to viable cell mass.
From the text: as §3

A further experiment has as its system 22RV1 cells. Kind of experiment: In vitro Matrigel invasion assay. Type of experiment: cell-based, human.
From the text: as §3

The test system of a further experiment is 22RV1-GLI cells. Nature of the experiment: In vitro Matrigel invasion assay. Type of experiment: cell-based, human.
From the text: as §3

Experiment [5] relates to AT6.3 subcutaneous tumors.

“Also recorded” adds a separate entry of the source. Where two headings read alike, the source gives them in different places. A value given as a limit tells only on which side of the number the result lay.

`C[C@]12CCC(=O)C[C@@H]1CC[C@@H]1[C@@H]2CC[C@]2(C)[C@@H](O)CC[C@@H]12` [dihydrotestosterone]: in the experiment on prostate epithelium (50 mg/kg/d for ten days after seven days of androgen withdrawal), the prostate regeneration result is reported as “re-growth of prostate of nearly normal size”.
As to `CC1=C2C[C@H]3[C@@H](CC=C4C[C@@H](O)CC[C@@]43C)[C@@H]2CC[C@]12O[C@@H]1C[C@H](C)CN[C@H]1[C@H]2C` [cyclopamine], the “expression of transcripts encoding c-myc” value in [1] is listed as “reduced expression”. Moreover, the “expression of transcripts encoding cyclin D1” value in experiment [1] was “reduced expression”. The “transcription of the gene encoding Nestin” value in experiment [1] is given as “suppressed transcription”. Moreover, the “expression of E-cadherin transcripts” value (in experiment [1] (human metastasis-derived prostate cancer cell lines); in the experiment with AT6.3 cells [2] (rat metastasis-derived prostate cancer cell line)) was “increased expression” throughout. The “expression of Snail transcripts” value in experiment [1] (human prostate cancer cell lines) was “decreased expression”. Besides, the “expression of the metastasis suppressor Ndrgl” value in [1] (human prostate cancer cells) is recorded as “increased expression”. Besides, in the experiment with AT6.3 cells [2] (AT6.3 cells), the Snail expression entry was “suppressed”. Also, the “time to complete regression of the tumors” value in the experiment with 22RV1 xenograft tumors and with PC3 xenograft tumors was 20 to 24 days each time. Further, the “Median Survival” value in experiment [3] was “No tumors”; in experiment [5] (i.p. 10 mg/kg/day), 19 days; in [5] (i.p. 50 mg/kg) it was “No death”; in experiment [5] (s.c. 50 mg/kg) it was “No tumors”. In the experiment on prostate epithelium (DHT plus cyclopamine 50 mg/kg/day s.c. for 10 days), the prostate regeneration result is given as “abolished prostate regeneration; also recorded: completely blocked prostate regeneration”. The values for the invasiveness result in the experiment on AT2.1-GLI cells, in the experiment with 22RV1 cells and in the experiment on 22RV1-GLI cells were “did not reduce the invasiveness”, “blocked” and “not affected”, respectively. The reduction of invasiveness result with AT6.3 cells [4] was “approximately nine-fold”. Moreover, the “Growth rate (% tumor volume/day)” value was 9.2 ± 2.4 % tumor volume/day in experiment [5] (i.p. 10 mg/kg) and 4.9 ± 1.0 % tumor volume/day in experiment [5] (i.p. 50 mg/kg). Also, the metastasis result is given as “inhibited metastasis” in experiment [5] (i.p. 10 mg/kg/day) and “blocked metastasis” in [5] (i.p. 50 mg/kg/day). Further, the “time by which all animals were dead” value in experiment [5] (i.p. 10 mg/kg/day) is recorded as not above 26 days. Also, the death entry in experiment [5] (i.p. 50 mg/kg/day, 50 day treatment period) is given as “prevented death”.
